Molecular target: human PAD4 (hPAD4) (Homo sapiens (Human), UniProt Q9UM07)
Assay: RFMS Human PAD4 Functional Assay 1
Assay type: biochemical
Conditions: RFMS assay 1; 5 nM hPAD4, 250 μM BAEE substrate, 50 μM calcium, 37° C.
Method in brief: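 Citrullination product read by RapidFire triple-quad MRM against a modified-citrulline internal standard, after TCA stop and 30 min phenyl glyoxal step at 37 °C. Reaction: 250 μM BAEE, 5 nM human PAD4, 90 min at 37 °C, pH 7.5 HEPES buffer with 50 μM calcium and 5 μM TPEN, following 30 min compound–enzyme preincubation (max 50 μM).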

Sequence of human PAD4 (hPAD4) (Q9UM07 whole entry): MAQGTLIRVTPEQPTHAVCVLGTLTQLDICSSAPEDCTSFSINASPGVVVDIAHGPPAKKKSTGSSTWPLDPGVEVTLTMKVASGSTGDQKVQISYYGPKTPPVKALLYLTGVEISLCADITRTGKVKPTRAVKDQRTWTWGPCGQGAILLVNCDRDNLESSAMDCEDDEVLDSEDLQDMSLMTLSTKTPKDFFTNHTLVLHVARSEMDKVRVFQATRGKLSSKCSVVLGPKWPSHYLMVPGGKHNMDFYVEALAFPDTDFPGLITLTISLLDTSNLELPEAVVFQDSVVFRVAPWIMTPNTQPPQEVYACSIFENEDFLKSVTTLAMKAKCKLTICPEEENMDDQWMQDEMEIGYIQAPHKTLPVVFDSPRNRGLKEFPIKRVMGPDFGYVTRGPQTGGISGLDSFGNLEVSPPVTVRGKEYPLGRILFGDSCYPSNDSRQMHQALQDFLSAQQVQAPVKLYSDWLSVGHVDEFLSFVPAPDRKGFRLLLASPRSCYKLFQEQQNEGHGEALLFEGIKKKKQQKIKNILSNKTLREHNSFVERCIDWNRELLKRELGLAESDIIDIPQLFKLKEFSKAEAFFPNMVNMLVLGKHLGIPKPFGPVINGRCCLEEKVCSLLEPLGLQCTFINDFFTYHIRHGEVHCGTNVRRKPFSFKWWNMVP

Going from `Cc1c(-c2ccc3cc(-c4nn5cc(C(=O)N6C[C@H](N)C[C@@H](F)C6)ccc5c4C)n(CC4CC4)c3n2)cc(F)c2[nH]c(=O)ccc12` [Example 324, 6-(2-{6-[(3R,5R)-3-Amino-5-fluoropiperidine-1-carbonyl]-3-methylpyrazolo[1,5-a]pyridin-2-yl}-1-(cyclopropylmethyl)-1H-pyrrolo[2,3-b]pyridin-6-yl)-8-fluoro-5-methyl-1,2-dihydroquinolin-2-one] to `COC(=O)N(C)C1CCN(c2ccc3cc(-c4nn5cc(C(=O)N6C[C@H](N)C[C@@H](F)C6)ccc5c4C)n(CC4CC4)c3n2)CC1` [Example 325, Methyl N-[1-(2-{6-[(3R,5R)-3-amino-5-fluoropiperidine-1-carbonyl]-3-methylpyrazolo[1,5-a]pyridin-2-yl}-1-(cyclopropylmethyl)-1H-pyrrolo[2,3-b]pyridin-6-yl)piperidin-4-yl]-N-methylcarbamate], the IC50 rises from 110 nM to 1540 nM (14-fold). The first is the more potent here.

`Cc1c(-c2cc3ccc(-c4ccc(F)c5[nH]ncc45)cc3n2CC2CC2)nn2cc(C(=O)N3CC4CCC3[C@@H]4N)ccc12` (stereo partly drawn) [Example 326, (7R)-2-{2-[1-(Cyclopropylmethyl)-6-(7-fluoro-1H-indazol-4-yl)-1H-indol-2-yl]-3-methylpyrazolo[1,5-a]pyridine-6-carbonyl}-2-azabicyclo[2.2.1]heptan-7-amine] and `Cc1c(-c2cc3ccc(-c4ccc5cn[nH]c5c4F)cc3n2CC2CC2)nn2cc(C(=O)N3CC4CCC3[C@@H]4N)ccc12` (stereo partly drawn) [Example 330, (7R)-2-{2-[1-(Cyclopropylmethyl)-6-(7-fluoro-1H-indazol-6-yl)-1H-indol-2-yl]-3-methylpyrazolo[1,5-a]pyridine-6-carbonyl}-2-azabicyclo[2.2.1]heptan-7-amine] are within 1.5-fold of each other in IC50: 200 nM for the first, 150 nM for the second.

Going from `Cc1c(-c2cc3ccc(-c4cccc5[nH]nc(F)c45)cc3n2CC2CC2)nn2cc(C(=O)N3CC4CCC3[C@@H]4N)ccc12` (stereo partly drawn) [Example 327, (7R)-2-{2-[1-(Cyclopropylmethyl)-6-(3-fluoro-1H-indazol-4-yl)-1H-indol-2-yl]-3-methylpyrazolo[1,5-a]pyridine-6-carbonyl}-2-azabicyclo[2.2.1]heptan-7-amine] to `Cc1c(-c2cc3ccc(-c4ccc5cn[nH]c5c4)cc3n2CC2CC2)nn2cc(C(=O)N3CC4CCC3[C@@H]4N)ccc12` (stereo partly drawn) [Example 332, (7R)-2-{2-[1-(Cyclopropylmethyl)-6-(1H-indazol-6-yl)-1H-indol-2-yl]-3-methylpyrazolo[1,5-a]pyridine-6-carbonyl}-2-azabicyclo[2.2.1]heptan-7-amine], the IC50 falls from 70 nM to 20 nM (3.5-fold). The second is the more potent here.

First: Cc1c(-c2cc3ccc(-c4ccc(N5CCNC5=O)cc4)cc3n2CC2CC2)nn2cc(C(=O)N3CC4CCC3[C@@H]4N)ccc12 (stereo partly drawn) [Example 328, 1-[4-(2-{6-[(7R)-7-Amino-2-azabicyclo[2.2.1]heptane-2-carbonyl]-3-methylpyrazolo[1,5-a]pyridin-2-yl}-1-(cyclopropylmethyl)-1H-indol-6-yl)phenyl]imidazolidin-2-one]
Second: Cc1c(-c2cc3ccc(-c4ccc(N5CCCC5=O)cc4)cc3n2CC2CC2)nn2cc(C(=O)N3CC4CCC3[C@@H]4N)ccc12 (stereo partly drawn) [Example 329, 1-[4-(2-{6-[(7R)-7-Amino-2-azabicyclo[2.2.1]heptane-2-carbonyl]-3-methylpyrazolo[1,5-a]pyridin-2-yl}-1-(cyclopropylmethyl)-1H-indol-6-yl)phenyl]pyrrolidin-2-one]
The IC50 of the first is 2.4-fold higher: 120 nM for the first, 50 nM for the second. The second is the more potent here.

Compared with `Cc1cc(-c2ccc3cc(-c4nn5cc(C(=O)N6CC7CCC6[C@@H]7N)ccc5c4C)n(CC4CC4)c3c2)c(F)cc1C(N)=O` (stereo partly drawn) [Example 331, 4-(2-{6-[(7R)-7-Amino-2-azabicyclo[2.2.1]heptane-2-carbonyl]-3-methylpyrazolo[1,5-a]pyridin-2-yl}-1-(cyclopropylmethyl)-1H-indol-6-yl)-5-fluoro-2-methylbenzamide], `Cc1cc(-c2ccc3cc(-c4nn5cc(C(=O)N6CC7CCC6[C@@H]7N)ccc5c4C)n(CC4CC4)c3c2)ccc1C(N)=O` (stereo partly drawn) [Example 334, 4-(2-{6-[(7R)-7-Amino-2-azabicyclo[2.2.1]heptane-2-carbonyl]-3-methylpyrazolo[1,5-a]pyridin-2-yl}-1-(cyclopropylmethyl)-1H-indol-6-yl)-2-methylbenzamide] is 2-fold higher in IC50: 60 nM for the first, 120 nM for the second.

Compared with `Cc1c(-c2cc3ccc(-c4ccc5[nH]ncc5c4)cc3n2CC2CC2)nn2cc(C(=O)N3CC4CCC3[C@@H]4N)ccc12` (stereo partly drawn) [Example 333, (7R)-2-{2-[1-(Cyclopropylmethyl)-6-(1H-indazol-5-yl)-1H-indol-2-yl]-3-methylpyrazolo[1,5-a]pyridine-6-carbonyl}-2-azabicyclo[2.2.1]heptan-7-amine], `Cc1c(-c2cc3ccc(-c4ccccc4N4CCNC4=O)cc3n2CC2CC2)nn2cc(C(=O)N3CC4CCC3[C@@H]4N)ccc12` (stereo partly drawn) [Example 338, 1-[2-(2-{6-[(7R)-7-Amino-2-azabicyclo[2.2.1]heptane-2-carbonyl]-3-methylpyrazolo[1,5-a]pyridin-2-yl}-1-(cyclopropylmethyl)-1H-indol-6-yl)phenyl]imidazolidin-2-one] is 2.5-fold higher in IC50: 20 nM for the first, 50 nM for the second.

Compared with `Cc1c(-c2cc3ccc(-c4ccc(C(N)=O)cc4C(F)(F)F)cc3n2CC2CC2)nn2cc(C(=O)N3CC4CCC3[C@@H]4N)ccc12` (stereo partly drawn) [Example 335, 4-(2-{6-[(7R)-7-Amino-2-azabicyclo[2.2.1]heptane-2-carbonyl]-3-methylpyrazolo[1,5-a]pyridin-2-yl}-1-(cyclopropylmethyl)-1H-indol-6-yl)-3-(trifluoromethyl)benzamide], `Cc1c(-c2cc3ccc(-c4ccc(Cl)c5c(NS(C)(=O)=O)nn(C)c45)cc3n2CC2CC2)nn2cc(C(=O)N3CC4CCC3[C@@H]4N)ccc12` (stereo partly drawn) [Example 337, N-[7-(2-{6-[(7R)-7-Amino-2-azabicyclo[2.2.1]heptane-2-carbonyl]-3-methylpyrazolo[1,5-a]pyridin-2-yl}-1-(cyclopropylmethyl)-1H-indol-6-yl)-4-chloro-1-methyl-1H-indazol-3-yl]methanesulfonamide] is 3-fold lower in IC50: 60 nM for the first, 20 nM for the second.

Going from `Cc1c(-c2cc3ccc(-c4ccc(CNS(C)(=O)=O)cc4)cc3n2CC2CC2)nn2cc(C(=O)N3CCC[C@@H](N)C3)ccc12` [Example 342, N-{[4-(2-{6-[(3R)-3-Aminopiperidine-1-carbonyl]-3-methylpyrazolo[1,5-a]pyridin-2-yl}-1-(cyclopropylmethyl)-1H-indol-6-yl)phenyl]methyl}methanesulfonamide] to `CC(=O)NCc1cccc(-c2ccc3cc(-c4nn5cc(C(=O)N6CCC[C@@H](N)C6)ccc5c4C)n(CC4CC4)c3c2)c1` [Example 343, N-{[3-(2-{6-[(3R)-3-Aminopiperidine-1-carbonyl]-3-methylpyrazolo[1,5-a]pyridin-2-yl}-1-(cyclopropylmethyl)-1H-indol-6-yl)phenyl]methyl}acetamide], the IC50 falls from 930 nM to 50 nM (19-fold).

First: Cc1c(-c2cc3ccc(-c4cccc(CO)c4)cc3n2CC2CC2)nn2cc(C(=O)N3CCC[C@@H](N)C3)ccc12 [Example 344, [3-(2-{6-[(3R)-3-Aminopiperidine-1-carbonyl]-3-methylpyrazolo[1,5-a]pyridin-2-yl}-1-(cyclopropylmethyl)-1H-indol-6-yl)phenyl]methanol]
Second: Cc1c(-c2cc3ccc(-c4ccc5[nH]ccc5c4)cc3n2CC2CC2)nn2cc(C(=O)N3CCC[C@@H](N)C3)ccc12 [Example 345, (3R)-1-{2-[1′-(Cyclopropylmethyl)-1H,1′H-[5,6′-biindole]-2′-yl]-3-methylpyrazolo[1,5-a]pyridine-6-carbonyl}piperidin-3-amine]
The IC50 of the first is 1.7-fold lower: 470 nM for the first, 790 nM for the second. The first is the more potent here.
